# Target: Met receptor tyrosine kinase (Homo sapiens, UniProt P08581)
# Test: phospho-Met
# Format: cell-based
# Sequence of Met receptor tyrosine kinase (P08581 25-307): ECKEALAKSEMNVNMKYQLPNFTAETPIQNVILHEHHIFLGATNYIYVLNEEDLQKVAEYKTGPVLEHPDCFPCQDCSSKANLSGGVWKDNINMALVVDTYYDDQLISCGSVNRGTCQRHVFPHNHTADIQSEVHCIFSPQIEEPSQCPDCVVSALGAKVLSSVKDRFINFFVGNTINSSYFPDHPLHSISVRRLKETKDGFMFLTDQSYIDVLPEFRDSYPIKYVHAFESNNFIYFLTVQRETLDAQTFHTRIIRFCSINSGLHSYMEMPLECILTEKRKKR
# Sequence of Met receptor tyrosine kinase (P08581 308-1390): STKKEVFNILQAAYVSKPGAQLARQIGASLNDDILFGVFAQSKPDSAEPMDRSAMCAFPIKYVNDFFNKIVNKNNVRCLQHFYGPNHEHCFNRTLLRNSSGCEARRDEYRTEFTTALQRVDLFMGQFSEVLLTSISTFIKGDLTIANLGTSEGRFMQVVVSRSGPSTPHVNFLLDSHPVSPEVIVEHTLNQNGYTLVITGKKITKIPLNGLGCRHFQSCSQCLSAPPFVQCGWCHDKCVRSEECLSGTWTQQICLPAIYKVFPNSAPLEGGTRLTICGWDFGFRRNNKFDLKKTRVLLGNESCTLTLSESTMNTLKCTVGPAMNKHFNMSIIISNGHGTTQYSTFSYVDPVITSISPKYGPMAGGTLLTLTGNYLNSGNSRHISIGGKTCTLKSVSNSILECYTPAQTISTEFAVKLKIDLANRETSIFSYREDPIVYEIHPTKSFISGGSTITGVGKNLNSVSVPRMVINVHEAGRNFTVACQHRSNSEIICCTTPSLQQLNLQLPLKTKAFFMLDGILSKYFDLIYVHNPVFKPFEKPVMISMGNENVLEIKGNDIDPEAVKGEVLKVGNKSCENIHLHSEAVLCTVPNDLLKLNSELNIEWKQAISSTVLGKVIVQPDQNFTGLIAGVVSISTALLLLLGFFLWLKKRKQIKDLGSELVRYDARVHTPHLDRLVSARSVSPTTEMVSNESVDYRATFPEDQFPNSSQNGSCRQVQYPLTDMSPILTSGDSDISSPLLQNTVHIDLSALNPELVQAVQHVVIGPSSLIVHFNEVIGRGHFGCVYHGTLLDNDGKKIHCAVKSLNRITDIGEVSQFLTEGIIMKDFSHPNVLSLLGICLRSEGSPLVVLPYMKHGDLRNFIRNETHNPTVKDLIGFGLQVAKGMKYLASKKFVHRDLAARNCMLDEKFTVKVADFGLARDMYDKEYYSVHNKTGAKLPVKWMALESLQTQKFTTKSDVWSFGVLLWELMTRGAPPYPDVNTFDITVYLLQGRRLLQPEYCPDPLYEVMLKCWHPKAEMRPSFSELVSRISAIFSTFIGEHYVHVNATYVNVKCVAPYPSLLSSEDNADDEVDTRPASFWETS
smiles,measurement,value
"Cc1[nH]c(/C=C2\C(=O)Nc3ccc(S(=O)(=O)N(C)c4cccc(Cl)c4)cc32)c(C)c1C(=O)N1CCN(C)CC1 [SU11274, (3Z)-N-(3-chlorophenyl)-3-({3,5-dimethyl-4-[(4-methylpiperazin-1-yl)carbonyl]-1H-pyrrol-2-yl}methylene)-N-methyl-2-oxoindoline-5-sulfonamide]",IC50,50 nM

# — article PMC2916072 (Archives of biochemistry and biophysics, 2010)
